In US7291641B2, “Derivatives of heterocycles with 5 members, their preparation and their use as medicaments” (Societe de Conseils de Recherches et d'Applications …, priority 1999, dated 2007):

| Compound | melting point [°C] |
| --- | --- |
| CN(CC#N)Cc1nc(-c2cc(C(C)(C)C)c(O)c(C(C)(C)C)c2)cs1 [Example 3, 2-[({4-[3,5-di(tert-butyl)-4-hydroxyphenyl]-1,3-thiazol-2-yl}methyl)(methyl)amino]acetonitrile] | 150 to 156 |
| CN(Cc1ccccc1)Cc1nc(-c2cc(C(C)(C)C)c(O)c(C(C)(C)C)c2)cs1 [Example 7, 4-(2-{[benzyl(methyl)amino]methyl}-1,3-thiazol-4-yl)-2,6-di(tert-butyl)phenol] | 165 to 170 |
| CCCCOC(=O)NCCc1nc(-c2ccc(-c3ccccc3)cc2)c[nH]1 [Example 31, butyl 2-(4-[1,1′-biphenyl]-4-yl-1H-imidazol-2-yl)ethylcarbamate] | 136.7 |
| CCCCC(=O)NCCc1nc(-c2ccc(-c3ccccc3)cc2)c[nH]1 [Example 32, N-[2-(4-[1,1′-biphenyl]-4-yl-1H-imidazol-2-yl)ethyl]pentanamide] | 166 to 167 |
| CCCCS(=O)(=O)NCCc1nc(-c2ccc(-c3ccccc3)cc2)c[nH]1 [Example 33, N-[2-(4-[1,1′-biphenyl]-4-yl-1H-imidazol-2-yl)ethyl]-1-butanesulphonamide] | 168.5 |
| CCCCNC(=O)NCCc1nc(-c2ccc(-c3ccccc3)cc2)c[nH]1 [Example 34] | 178 |
| Fc1ccc(-c2c[nH]c([C@@H](NC3CCC3)C3CCCCC3)n2)cc1 [Example 35, N-{(S)-cyclohexyl[4-(4-fluorophenyl)-1H-imidazol-2-yl]methyl}cyclobutanamine] | 170 to 172 |
| CCCCCCC(NC1CCCCC1)c1nc(C2CCCCC2)c[nH]1 (stereo not drawn) [Example 36, N-[1-(4-cyclohexyl-1H-imidazol-2-yl)heptyl]cyclohexanamine] | 172 to 174 |
| CC(C)CCCC(NC1CCCCC1)c1nc(-c2cccc(Br)c2)c[nH]1 (stereo not drawn) [Example 37, N-{1-[4-(3-bromophenyl)-1H-imidazol-2-yl]-5-methylhexyl}-N-cyclohexylamine] | 236 to 238 |
| CCCCCCC(NC1CCCCC1)c1nc(-c2ccc(F)cc2)c[nH]1 (stereo not drawn) [Example 38, N-{1-[4-(4-fluorophenyl)-1H-imidazol-2-yl]heptyl}cyclohexanamine] | 190 to 192 |
| CC(C)(C)c1cn(Cc2ccccc2)c([C@@H](Cc2c[nH]c3ccccc23)NCc2ccccc2)n1 [Example 39, (1R)-N-benzyl-1-(1-benzyl-4-tert-butyl-1H-imidazol-2-yl)-2-(1H-indol-3-yl)ethanamine] | 60 to 62 |
| CCCCCCN(Cc1ccccc1)Cc1nc(-c2ccc(-c3ccccc3)cc2)c[nH]1 [Example 41, N-benzyl-N-[(4-[1,1′-biphenyl]-4-yl-1H-imidazol-2-yl)methyl]-1-hexanamine] | 120 to 122 |
| CN(Cc1ccccc1)Cc1nc(-c2ccc(-c3ccccc3)cc2)c[nH]1 [Example 42, N-benzyl(4-[1,1′-biphenyl]-4-yl-1H-imidazol-2-yl)-N-methylmethanamine] | 106 to 108 |
| c1ccc(-c2c[nH]c([C@@H](Cc3c[nH]c4ccccc34)Nc3ncccn3)n2)cc1 [Example 44, N-[(1R)-2-(1H-indol-3-yl)-1-(4-phenyl-1H-imidazol-2-yl)ethyl]-2-pyrimidinamine] | 138 to 140 |
| CN(C)Cc1nc(-c2ccccc2)cn1Cc1ccccc1 [Example 45, (1-benzyl-4-phenyl-1H-imidazol-2-yl)-N,N-dimethylmethanamine] | 78 to 80 |
| CN(Cc1ccccc1)[C@H](Cc1c[nH]c2ccccc12)c1nc(-c2ccccc2)c[nH]1 [Example 46, (1R)-N-benzyl-2-(1H-indol-3-yl)-N-methyl-1-(4-phenyl-1H-imidazol-2-yl)ethanamine] | 110 to 112 |
| c1ccc(CN[C@H](Cc2ccccc2)c2nc(-c3ccccc3)c[nH]2)cc1 [Example 48, (1R)-N-benzyl-2-phenyl-1-(4-phenyl-1H-imidazol-2-yl)ethanamine] | 228 to 230 |
| CC(C)(C)OC(=O)N[C@H](Cc1c[nH]c2ccccc12)c1nc(C(C)(C)C)c[nH]1 [Example 50, tert-butyl (1R)-1-(4-tert-butyl-1H-imidazol-2-yl)-2-(1H-indol-3-yl)-ethylcarbamate] | 104 to 106 |
| CC(C)(C)CC(=O)NCCc1nc(-c2ccc(-c3ccccc3)cc2)c[nH]1 [Example 61, N-[2-(4-[1,1′-biphenyl]-4-yl-1H-imidazol-2-yl)ethyl]-3,3-dimethyl-butanamide] | 186 to 188 |
| CCCCOC(=O)NCc1nc(-c2ccc(-c3ccccc3)cc2)c[nH]1 [Example 78, butyl (4-[1,1′-biphenyl]-4-yl-1H-imidazol-2-yl)methylcarbamate] | 130 to 132 |
| Fc1cccc(-c2c[nH]c([C@@H](NC3CCC3)C3CCCCC3)n2)c1 [Example 87, N-{(S)-cyclohexyl[4-(3-fluorophenyl)-1H-imidazol-2-yl]methyl}-cyclobutanamine] | 172 to 176 |

| Compound | melting point [°C] |
| --- | --- |
| c1ccc(CN[C@H](Cc2c[nH]c3ccccc23)c2nc(-c3ccccc3)c[nH]2)cc1 [Example 88, (1R)-N-benzyl-2-(1H-indol-3-yl)-1-(4-phenyl-1H-imidazol-2-yl)ethanamine] | 100 to 102 |
| c1ccc(CN[C@@H](Cc2c[nH]c3ccccc23)c2nc(-c3ccccc3)c[nH]2)cc1 [Example 93, (1S)-N-benzyl-2-(1H-indol-3-yl)-1-(4-phenyl-1H-imidazol-2-yl)ethanamine] | 118 to 120 |
| c1ccc(CN[C@H](Cc2c[nH]c3ccccc23)c2nc(-c3ccccc3)c(-c3ccccc3)[nH]2)cc1 [Example 94, (1R)-N-benzyl-1-(4,5-diphenyl-1H-imidazol-2-yl)-2-(1H-indol-3-yl)ethanamine] | 146 to 148 |
| Cc1[nH]c([C@@H](Cc2c[nH]c3ccccc23)NCc2ccccc2)nc1-c1ccccc1 [Example 95, (1R)-N-benzyl-2-(1H-indol-3-yl)-1-(5-methyl-4-phenyl-1H-imidazol-2-yl)ethanamine] | 120 to 122 |
| CC(C)(C)OC(=O)N[C@H](Cc1c[nH]c2ccccc12)c1nc(-c2ccccc2)c[nH]1 [Example 96, tert-butyl (1R)-2-(1H-indol-3-yl)-1-(4-phenyl-1H-imidazol-2-yl)-ethylcarbamate] | 208 to 210 |
| O=C(N[C@H](Cc1c[nH]c2ccccc12)c1nc(-c2ccccc2)c[nH]1)c1ccccc1 [Example 98, N-[(1R)-2-(1H-indol-3-yl)-1-(4-phenyl-1H-imidazol-2-yl)ethyl]benzamide] | 218 to 220 |
| O=C(N[C@H](Cc1c[nH]c2ccccc12)c1nc(-c2ccccc2)c[nH]1)OCc1ccccc1 [Example 99, benzyl (1R)-2-(1H-indol-3-yl)-1-(4-phenyl-1H-imidazol-2-yl)ethylcarbamate] | 105 to 108 |
| c1ccc(CN[C@H](Cc2c[nH]c3ccccc23)c2nc(-c3ccccc3)cs2)cc1 [Example 100, (1R)-N-benzyl-2-(1H-indol-3-yl)-1-(4-phenyl-1,3-thiazol-2-yl)ethanamine] | 134 to 136 |
| O=C(N[C@H](Cc1c[nH]c2ccccc12)c1nc(-c2ccccc2)cs1)c1ccccc1 [Example 101, N-[(1R)-2-(1H-indol-3-yl)-1-(4-phenyl-1,3-thiazol-2-yl)-ethyl]benzamide] | 108 to 110 |
| CC(C)(C)OC(=O)N[C@H](Cc1c[nH]c2ccccc12)c1nc(-c2ccc([N+](=O)[O-])cc2)c[nH]1 [Example 102, tert-butyl (1R)-2-(1H-indol-3-yl)-1-[4-(4-nitrophenyl)-1H-imidazol-2-yl]-ethylcarbamate] | 220 to 222 |
| CC(C)(C)OC(=O)NCc1nc(-c2ccccc2)c[nH]1 [Example 103, tert-butyl (4-phenyl-1H-imidazol-2-yl)methylcarbamate] | 170 to 172 |
| CC(C)(C)OC(=O)NCc1nc(-c2ccccc2)cn1Cc1ccccc1 [Example 104, tert-butyl (1-benzyl-4-phenyl-1H-imidazol-2-yl)methylcarbamate] | 140 to 142 |
| c1ccc(OCCN[C@H](Cc2c[nH]c3ccccc23)c2nc(-c3ccccc3)c[nH]2)cc1 [Example 108, (1R)-2-(1H-indol-3-yl)-N-(2-phenoxyethyl)-1-(4-phenyl-1H-imidazol-2-yl)ethanamine] | 94 to 96 |
| c1ccc(CNCc2nc(-c3ccccc3)cn2Cc2ccccc2)cc1 [Example 110, N-benzyl(1-benzyl-4-phenyl-1H-imidazol-2-yl)methanamine] | 60 to 62 |
| c1ccc(CN[C@H](Cc2csc3ccccc23)c2nc(-c3ccccc3)c[nH]2)cc1 [Example 111, (1R)-2-(1-benzothien-3-yl)-N-benzyl-1-(4-phenyl-1H-imidazol-2-yl)ethanamine] | 152 to 154 |
| c1ccc(OCCN[C@H](Cc2c[nH]c3ccccc23)c2nc(-c3ccccc3)cs2)cc1 [Example 112, (1R)-2-(1H-indol-3-yl)-N-(2-phenoxyethyl)-1-(4-phenyl-1,3-thiazol-2-yl)ethanamine] | 124 to 126 |
| CC(C)(C)OC(=O)NC1(c2nc(-c3ccccc3)c[nH]2)CCCCC1 [Example 113, tert-butyl 1-(4-phenyl-1H-imidazol-2-yl)cyclohexylcarbamate] | 170 to 172 |
| c1ccc(CNC2(c3nc(-c4ccccc4)c[nH]3)CCCCC2)cc1 [Example 123, N-benzyl-1-(4-phenyl-1H-imidazol-2-yl)cyclohexanamine] | 114 to 116 |
| CC(C)C[C@@H](NC(=O)OC(C)(C)C)c1nc(-c2ccccc2)c[nH]1 [Example 124, tert-butyl (1R)-3-methyl-1-(4-phenyl-1H-imidazol-2-yl)butylcarbamate] | 88 to 90 |
| CC(C)C[C@@H](NCc1ccccc1)c1nc(-c2ccccc2)c[nH]1 [Example 125, (1R)-N-benzyl-3-methyl-1-(4-phenyl-1H-imidazol-2-yl)-1-butanamine] | 134 to 135 |
| CC(C)(C)OC(=O)NC(C)(C)c1nc(-c2ccccc2)c[nH]1 [Example 127, tert-butyl 1-methyl-1-(4-phenyl-1H-imidazol-2-yl)ethylcarbamate] | 130 to 132 |
